Measurements: publication PMC4076021 (ACS chemical biology, 2014)
Like-named read-outs stand apart in the source and are kept apart here. Blank lines part the entries; values can stand above or below the compound they belong to.

What was measured:
GST-LSD1 [1] = biological target: T1, GST-LSD1 (Homo sapiens, UniProt O60341); experiment: biochemical; assay type: biochemical; conditions: for kinact/KI: read-out: kinact/Ki(inact)
H3K4Me2 in LNCaP cells = experiment: Western blot of histone H3 methylation in LNCaP cells; assay type: cell-based
[2] = system: immature primary cortical neurons; experiment: Oxidative toxicity; assay type: cell-based, rat; conditions: 0.5 µM, 5 mM HCA, MTT
H3K4Me2 in H460 cells = experiment: Western blot of H3K4Me2 in H460 cells; assay type: cell-based; conditions: H460, 48 h, compared with LNCaP
GST-LSD1 [3] = biological target: T1, GST-LSD1; experiment: MassSQUIRM LSD1 inhibition assay; assay type: biochemical; conditions: 50 µM inhibitor, 30 min, 215 nM GST-LSD1
H460 cells [4] = system: H460 cells
GST-LSD1 [5] = biological target: T1, GST-LSD1; conditions: cited from earlier work
H460 cells [6] = experiment: [3H] thymidine incorporation proliferation assay in H460 cells; assay type: cell-based; conditions: H460, 48 h, 80 µM
[7] = mechanism-based inactivation, extrapolated to zero substrate

SMILES: CNNCCc1ccccc1.Cl.Cl [9a]
LSD1 inhibitory action (in words) (GST-LSD1 [1]): negated LSD1 inhibitory action

SMILES: CN(C)NCCc1ccccc1 [9b]
IC50 (GST-LSD1 [1]): > 100 µM

SMILES: COc1ccc(CCCNN)cc1.Cl.Cl [9e]
KI (inactivation) (GST-LSD1 [1]): 8 ± 3.5 µM
LSD1 inhibitory action (in words) (GST-LSD1 [1]): made little difference
kinact (GST-LSD1 [1]): 0.0025 s⁻¹
kinact/KI (GST-LSD1 [1]): 317 M⁻¹ s⁻¹

SMILES: CNNCCCc1ccc(OC)cc1 [9f]
IC50 (GST-LSD1 [1]): > 100 µM

SMILES: NNCCCCc1ccccc1 [9h]
KI (inactivation) (GST-LSD1 [1]): 22 ± 3 µM
kinact (GST-LSD1 [1]): 0.002 s⁻¹
kinact/KI (GST-LSD1 [1]): 91.7 M⁻¹ s⁻¹

SMILES: NNCCOc1ccccc1 [10a]
KI (inactivation) (GST-LSD1 [1]): 44 ± 9.7 µM
kinact (GST-LSD1 [1]): 0.0025 s⁻¹
kinact/KI (GST-LSD1 [1]): 56.7 M⁻¹ s⁻¹

SMILES: NNCCCOc1ccccc1 [10b]
KI (inactivation) (GST-LSD1 [1]): 12 ± 2.1 µM
kinact (GST-LSD1 [1]): 0.00367 s⁻¹
kinact/KI (GST-LSD1 [1]): 300 M⁻¹ s⁻¹

SMILES: Cl.Cl.NNCCc1ccc(NC(=O)CCCc2ccccc2)cc1 [12d]
H3K4Me2 band density time course (in words) (H3K4Me2 in LNCaP cells; 10 µM, normalized to vehicle, 3 biological replicates): Statistically significant increases were observed at 6, 24, 48, 72, and 96 h but not at 30 min and 12 h
changes in H3K4Me1, H3K4Me3, unmethylated H3K4, H3K9Me2, H3K9Ac, H3K36Me3 (in words) (H3K4Me2 in LNCaP cells; 0.4–10 µM, 48 h): no significant reproducible changes
effect on LSD1 protein levels (in words) (H3K4Me2 in LNCaP cells; 0.4–10 µM, 48 h): no discernible effect
H3K4Me2 band density (in words) (H3K4Me2 in LNCaP cells; 48 h, 3 µM and 10 µM, three biological replicates): Statistically significant increases
survival of neurons after HCA treatment (in words) [2]: significantly enhanced survival
effect on H3K4Me2 levels (in words) (H3K4Me2 in H460 cells): comparable dose-response effects
LSD1 inhibition in MassSQUIRM assay (in words) (GST-LSD1 [3]): very substantial LSD1 inhibition

SMILES: CN(C(=O)CCCc1ccccc1)c1ccc(CCNN)cc1.O=C(O)C(=O)O [12l]
fold weaker LSD1 inhibitor than bizine (GST-LSD1 [1]): ~ 30 fold
kinact (GST-LSD1 [1]): 0.004 s⁻¹
KI (inactivation) (GST-LSD1 [1]; [7]): 2 ± 0.73 µM
kinact/KI (GST-LSD1 [1]): 2000 M⁻¹ s⁻¹
H3K4Me2 changes (in words) (H3K4Me2 in LNCaP cells; 48 h, concentrations up to 10 µM): did not show changes in H3K4Me2

SMILES: NNCCc1ccc(N(Cc2ccccc2)C(=O)CCCc2ccccc2)cc1 [12m]
kinact (GST-LSD1 [1]): 0.00367 s⁻¹
KI (inactivation) (GST-LSD1 [1]; [7]): 1.6 ± 0.49 µM
kinact/KI (GST-LSD1 [1]): 2330 M⁻¹ s⁻¹

SMILES: Cc1[nH]c2ccccc2c1CCNCc1ccc(/C=C/C(=O)NO)cc1 [LBH-589]
combination effect on inhibition of H460 cell proliferation (in words) (H460 cells [4]): additive to synergistic effects

SMILES: Nc1ccccc1NC(=O)c1ccc(CNc2nccc(-c3cccnc3)n2)cc1 [MGCD0103]
combination effect on inhibition of H460 cell proliferation (in words) (H460 cells [4]): moderate antagonism
combination index (CI) (H460 cells [4]): > 1

SMILES: Nc1ccccc1NC(=O)c1ccc(CNC(=O)OCc2cccnc2)cc1 [MS-275]
combination effect on inhibition of H460 cell proliferation (in words) (H460 cells [4]): additive to synergistic effects

SMILES: CC(/C=C/C(=O)NO)=C\[C@@H](C)C(=O)c1ccc(N(C)C)cc1 [TSA]
combination effect on inhibition of H460 cell proliferation (in words) (H460 cells [4]): moderate antagonism
combination index (CI) (H460 cells [4]): > 1

SMILES: Nc1ncn([C@@H]2O[C@H](CO)[C@@H](O)[C@H]2O)c(=O)n1 [azacytidine]
combination effect on inhibition of H460 cell proliferation (in words) (H460 cells [4]): moderate antagonism

SMILES: NNCCCN1CCOCC1 [compound 11]
IC50 (GST-LSD1 [1]): > 100 µM
LSD1 inhibitory action (in words) (GST-LSD1 [1]): not compatible with LSD1 inhibition

SMILES: NNCCc1ccccc1 [phenelzine, reference compound]
H3K4Me2 changes (in words) (H3K4Me2 in LNCaP cells; 48 h, concentrations up to 40 µM): did not induce H3K4Me2 changes
concentration needed to extinguish LSD1 activity under MassSQUIRM conditions (GST-LSD1 [5]): greater than 10 mM
reduction in 3H-thymidine incorporation (H460 cells [6]): < 50%
LSD1 inhibition in MassSQUIRM assay (in words) (GST-LSD1 [3]): negligible impact on LSD1 inhibition

More lines, now with the values ahead:

KI (inactivation) (GST-LSD1 [1]): 0.28 ± 0.11 µM
kinact (GST-LSD1 [1]): 0.00317 s⁻¹
kinact/KI (GST-LSD1 [1]): 11700 M⁻¹ s⁻¹
SMILES: NNCCc1ccc(NC(=O)c2ccccc2)cc1 [12a]

KI (inactivation) (GST-LSD1 [1]): 0.37 ± 0.033 µM
kinact (GST-LSD1 [1]): 0.00333 s⁻¹
kinact/KI (GST-LSD1 [1]): 9000 M⁻¹ s⁻¹
SMILES: NNCCc1ccc(NC(=O)Cc2ccccc2)cc1 [12b]

kinact (GST-LSD1 [1]): 0.004 s⁻¹
kinact/KI (GST-LSD1 [1]): 15300 M⁻¹ s⁻¹
SMILES: NNCCc1ccc(NC(=O)CCc2ccccc2)cc1 [12c]

kinact (GST-LSD1 [1]): 0.00367 s⁻¹
KI (inactivation) (GST-LSD1 [1]; [7]): 0.26 ± 0.11 µM
kinact/KI (GST-LSD1 [1]): 14300 M⁻¹ s⁻¹
SMILES: NNCCc1ccc(NC(=O)CCCCc2ccccc2)cc1 [12e]

kinact (GST-LSD1 [1]): 0.00283 s⁻¹
kinact/KI (GST-LSD1 [1]): 18300 M⁻¹ s⁻¹
SMILES: NNCCc1ccc(NC(=O)CCCc2ccc(Cl)cc2)cc1 [12f]

kinact (GST-LSD1 [1]): 0.0035 s⁻¹
kinact/KI (GST-LSD1 [1]): 12300 M⁻¹ s⁻¹
SMILES: NNCCc1ccc(NC(=O)CCCc2ccc([N+](=O)[O-])cc2)cc1 [12i]

kinact (GST-LSD1 [1]): 0.0035 s⁻¹
kinact/KI (GST-LSD1 [1]): 16700 M⁻¹ s⁻¹
SMILES: NNCCc1ccc(NC(=O)CCc2c[nH]c3ccccc23)cc1 [15a]

kinact (GST-LSD1 [1]): 0.00283 s⁻¹
kinact/KI (GST-LSD1 [1]): 28300 M⁻¹ s⁻¹
SMILES: NNCCc1ccc(NC(=O)/C=C/c2ccccc2)cc1 [compound 13]
